Experimental data: ChEMBL document CHEMBL4308841, “Synthesis, in vitro antiproliferative activity, and kinase inhibitory effects of pyrazole-containing diarylureas and diarylamides” (Eur J Med Chem, 2018)

Assays:
MOLT-4 = assay: Growth inhibition of human MOLT4 cells assessed as cell growth at 0.01 uM incubated for 48 hrs by sulforhodamine B assay relative to control; assay type: functional; settings: MOLT-4, 48 h, read-out: Activity
DU-145 = assay: Growth inhibition of human DU145 cells assessed as cell growth at 100 uM incubated for 48 hrs by sulforhodamine B assay relative to control; assay type: functional; settings: DU-145, 48 h, read-out: Activity
IGROV-1 = assay: Growth inhibition of human IGROV1 cells assessed as cell growth at 1 uM incubated for 48 hrs by sulforhodamine B assay relative to control; assay type: functional; settings: IGROV-1, 48 h, read-out: Activity
HT-29 = assay: Growth inhibition of human HT-29 cells incubated for 48 hrs by sulforhodamine B assay; assay type: functional, cell-based; settings: HT-29, 48 h
SF-295 = assay: Growth inhibition of human SF295 cells incubated for 48 hrs by sulforhodamine B assay; assay type: functional, cell-based; settings: SF-295, 48 h
SR = assay: Growth inhibition of human SR cells incubated for 48 hrs by sulforhodamine B assay; assay type: functional, cell-based
NCI-H522 = assay: Growth inhibition of human NCI-H522 cells assessed as cell growth at 100 uM incubated for 48 hrs by sulforhodamine B assay relative to control; assay type: functional; settings: NCI-H522, 48 h, read-out: Activity
HOP-92 = assay: Growth inhibition of human HOP92 cells assessed as cell growth at 10 uM incubated for 48 hrs by sulforhodamine B assay relative to control; assay type: functional; settings: HOP-92, 48 h, read-out: Activity
[1] = read-out: LC50 (the source's name)
[2] = read-out: pLC50 (the source's name) (converted)

Row | SMILES | growth at 0.01 µM (MOLT-4) | growth at 100 µM (DU-145) | growth at 1 µM (IGROV-1) | GI50 (HT-29; read-out: GI50) | CC50 (HT-29; [1]) | GI50 (HT-29; read-out: pGI50 (converted)) | CC50 (HT-29; [2]) | TGI (HT-29; read-out: pTGI (converted)) | CC50 (SF-295; [1]) | TGI (SF-295; read-out: TGI) | GI50 (SF-295; read-out: pGI50 (converted)) | CC50 (SF-295; [2]) | TGI (SF-295; read-out: pTGI (converted)) | GI50 (SR; read-out: GI50) | CC50 (SR; [1]) | TGI (SR; read-out: TGI) | GI50 (SR; read-out: pGI50 (converted)) | CC50 (SR; [2]) | TGI (SR; read-out: pTGI (converted)) | growth at 100 µM (NCI-H522) | further results
1 | COc1cc(Cl)cc(-c2nn(-c3cccc(NC(=O)c4cccc(C(F)(F)F)c4)c3)cc2-c2ccncc2)c1 | 91% | 50% | 94% | 3.37 µM | > 100 µM | 3.39 µM | > 100 µM | > 100 µM | > 100 µM | > 100 µM | 3.89 µM | > 100 µM | > 100 µM | 2.48 µM | > 100 µM | > 100 µM | 3.09 µM | > 100 µM | > 100 µM | 18% | TGI (HT-29; read-out: TGI): > 100 µM
2 | O=C(Nc1cccc(-n2cc(-c3ccncc3)c(-c3cc(O)cc(Cl)c3)n2)c1)c1cc(C(F)(F)F)cc(C(F)(F)F)c1 | 99% | 23% | 103% | 2.5 µM | > 100 µM | 2.51 µM | > 100 µM | 38 µM | > 100 µM | 71.5 µM | 2.4 µM | > 100 µM | 7.08 µM | 1.51 µM | > 100 µM | 50.1 µM | 1.62 µM | > 100 µM | 5.01 µM | -18% | TGI (HT-29; read-out: TGI): 37.7 µM; GI50 (SF-295; read-out: GI50): 2.37 µM
3 | COc1cc(Cl)cc(-c2nn(-c3cccc(NC(=O)Nc4ccc(Cl)c(C(F)(F)F)c4)c3)cc2-c2ccncc2)c1 | 99% | -71% | 87% | 1.14 µM | 3.52 µM | 1.15 µM | 38 µM | 4.37 µM | 5.15 µM | 20 µM | 0.468 µM | 6.17 µM | 2 µM | 1.06 µM | > 100 µM | 43.8 µM | 1.07 µM | > 100 µM | 4.37 µM | -66% | TGI (HT-29; read-out: TGI): 43.8 µM; GI50 (SF-295; read-out: GI50): 0.455 µM
4 | COc1cc(Cl)cc(-c2nn(-c3cccc(NC(=O)c4ccc(N5CCOCC5)c(C(F)(F)F)c4)c3)cc2-c2ccncc2)c1 | 100% | 54% | 104% | 4 µM | > 100 µM | 4.07 µM | > 100 µM | 38 µM | > 100 µM | 14.8 µM | 2.19 µM | > 100 µM | 14.8 µM | 3.06 µM | > 100 µM | > 100 µM | 3.09 µM | > 100 µM | > 100 µM | 31% | TGI (HT-29; read-out: TGI): 38 µM; GI50 (SF-295; read-out: GI50): 2.71 µM
5 | COc1cc(Cl)cc(-c2nn(-c3cccc(NC(=O)Nc4ccc(Cl)c(Cl)c4)c3)cc2-c2ccncc2)c1 | 99% | 13% | 102% | – | > 100 µM | 2.4 µM | > 100 µM | 9.12 µM | > 100 µM | 72.1 µM | 1.78 µM | > 100 µM | 7.24 µM | 1.54 µM | > 100 µM | 53 µM | 1.55 µM | > 100 µM | 5.75 µM | -15% | GI50 (SF-295; read-out: GI50): 1.37 µM
6 | COc1cc(Cl)cc(-c2nn(-c3cccc(NC(=O)c4cc(C(F)(F)F)cc(C(F)(F)F)c4)c3)cc2-c2ccncc2)c1 | – | – | – | – | – | – | – | – | – | – | – | – | – | – | – | – | – | – | – | – | growth at 10 µM (HOP-92): 46.8%
7 | COc1cc(Cl)cc(-c2nn(-c3cccc(NC(=O)Nc4cccc(C(F)(F)F)c4)c3)cc2-c2ccncc2)c1 | 95% | 7% | 85% | 1.51 µM | 25.1 µM | 1.51 µM | 26.3 µM | 6.31 µM | 75.9 µM | 45.2 µM | 0.776 µM | 77.6 µM | 4.57 µM | 1.14 µM | > 100 µM | 43.9 µM | 1.15 µM | > 100 µM | 4.37 µM | -78% | TGI (HT-29; read-out: TGI): 52.4 µM; GI50 (SF-295; read-out: GI50): 0.753 µM; growth at 10 µM (HOP-92): -27.3%
8 | O=C(Nc1cccc(-n2cc(-c3ccncc3)c(-c3cc(O)cc(Cl)c3)n2)c1)Nc1ccc(Cl)c(C(F)(F)F)c1 | 100% | -68% | 113% | 2.12 µM | 95.9 µM | 2.14 µM | 10 µM | 4.57 µM | 17 µM | 49.6 µM | 2.57 µM | 17.8 µM | 4.9 µM | 2.01 µM | > 100 µM | 51 µM | 2 µM | > 100 µM | 5.13 µM | -95% | TGI (HT-29; read-out: TGI): 45.7 µM; GI50 (SF-295; read-out: GI50): 2.06 µM
9 | O=C(Nc1cccc(-n2cc(-c3ccncc3)c(-c3cc(O)cc(Cl)c3)n2)c1)Nc1ccc(Cl)c(Cl)c1 | 93% | -31% | 95% | 1.92 µM | 7.9 µM | 1.91 µM | 7.94 µM | 3.89 µM | 4.4 µM | 45 µM | 1.7 µM | 43.7 µM | 4.57 µM | 1.3 µM | > 100 µM | 42.4 µM | 1.32 µM | > 100 µM | 4.27 µM | -55% | TGI (HT-29; read-out: TGI): 39 µM; GI50 (SF-295; read-out: GI50): 1.7 µM; growth at 10 µM (HOP-92): -30.5%
10 | O=C(Nc1cccc(-n2cc(-c3ccncc3)c(-c3cc(O)cc(Cl)c3)n2)c1)c1ccc(N2CCOCC2)c(C(F)(F)F)c1 | 93% | 13% | 91% | 3.03 µM | > 100 µM | 3.02 µM | > 100 µM | 11.2 µM | 25.1 µM | 27.8 µM | 0.617 µM | 28.2 µM | 2.75 µM | 0.338 µM | > 100 µM | 15.3 µM | 0.339 µM | > 100 µM | 1.82 µM | -20% | TGI (HT-29; read-out: TGI): 11.3 µM; GI50 (SF-295; read-out: GI50): 0.514 µM
